Laboratory results: ChEMBL document CHEMBL3046082, “Control of Rice Blast Disease by Submerged Treatment with SSF-126” (J Pestic Sci, 1997)

Key:
[1] = system: Pyricularia oryzae; experiment: Antifungal activity against Magnaporthe oryzae in fourth-leaf stage of rice plant assessed as spore germination at 9 g/a after 24 hr (reference value: 97.2 +/- 2.7%); assay type: functional
[2] = system: Root; experiment: Drug level in Oryza sativa (rice) plant root at 18 g/a up to 42 days; assay type: ADME; settings: 1008 h
[3] = system: Pyricularia oryzae; experiment: Antifungal activity against Magnaporthe oryzae in fourth-leaf stage of rice plant assessed as spore germination at 18 g/a after 24 hr (reference value: 97.2 +/- 2.7%); assay type: functional
[4] = system: Pyricularia oryzae; experiment: Antifungal activity against Magnaporthe oryzae in fourth-leaf stage of rice plant assessed as appressorial formation at 36 g/a after 24 hr (reference value: 90.4 +/- 5.6%); assay type: functional
[5] = system: Pyricularia oryzae; experiment: Antifungal activity against Magnaporthe oryzae in fourth-leaf stage of rice plant assessed as appressorial formation at 9 g/a after 24 hr (reference value: 90.4 +/- 5.6%); assay type: functional
[6] = system: Pyricularia oryzae; experiment: Antifungal activity against Magnaporthe oryzae in fourth-leaf stage of rice plant assessed as spore germination at 36 g/a after 24 hr (reference value: 97.2 +/- 2.7%); assay type: functional
[7] = system: Leaf; experiment: Drug level in Oryza sativa (rice) plant leaf at 18 g/a up to 42 days; assay type: ADME; settings: 1008 h
[8] = system: Pyricularia oryzae; experiment: Antifungal activity against Magnaporthe oryzae in fourth-leaf stage of rice plant assessed as appressorial formation at 18 g/a after 24 hr (reference value: 90.4 +/- 5.6%); assay type: functional
[9] = system: Leaf; experiment: Drug level in Oryza sativa (rice) plant leaf at 18 g/a after 10 days; assay type: ADME; settings: 240 h

In the case of CNC(=O)/C(=N\OC)c1ccccc1Oc1ccccc1, the Activity [1] is reported as 97.1%, the Drug uptake [2] is reported as under 2 ppm and the Activity [3] is reported as 96.5%. It also gave an Activity [4] of 91.9%, an Activity [5] of 92.2% and an Activity [6] of 96.4%. For the same compound, the Drug uptake [7] was under 2 ppm, the Activity [8] was 91.2% and the Drug uptake [9] was 20 ppm.
